Test results taken from ChEMBL document CHEMBL4373711, “Development of 3,5-Dinitrophenyl-Containing 1,2,4-Triazoles and Their Trifluoromethyl Analogues as Highly Efficient Antitubercular Agents Inhibiting Decaprenylphosphoryl-β-d-ribofuranose 2'-Oxidase” (J Med Chem, 2019).
≈ marks a conversion by molar mass, not a printed value.

Tests used:
[1] = test system: Mycobacterium tuberculosis; test: Antitubercular activity against Mycobacterium tuberculosis H37Rv; assay type: functional
[2] = Genotoxicity in Salmonella typhimurium TA98 at 30 uM in absence of rat liver S9 fraction by Ames test; assay type: toxicity; conditions: salmonella enterica subsp. enterica serovar typhimurium, s9, 30 µM

Structure (SMILES)	MIC [1]	Activity [2]
C[C@]1(COc2ccc(N3CCC(Oc4ccc(OC(F)(F)F)cc4)CC3)cc2)Cn2cc([N+](=O)[O-])nc2O1	0.023 µM (≈ 0.0123 µg/mL)	–
O=[N+]([O-])c1ccc2c(c1)Cc1ccccc1-2 [2-NITROFLUORENE]	–	Toxic
O=c1nc(N2CCN(CC3CCCCC3)CC2)sc2c([N+](=O)[O-])cc(C(F)(F)F)cc12 [MACOZINONE]	0.0004 µM (≈ 0.000183 µg/mL)	–
O=[N+]([O-])c1cn2c(n1)OC[C@@H](OCc1ccc(OC(F)(F)F)cc1)C2 [PRETOMANID]	0.05 to 0.7 µM (≈ 0.018 to 0.251 µg/mL)	–
